Structures are written as SMILES.

The test system of one experiment is CCNK. The experiment in a line: CCNK degradation (DC50, Dmax). To be noted: for Dmax (%): CCNK degradation. The class given is cell-based.
The target of another experiment is CDK12 (Homo sapiens, UniProt Q9NYV4). Description: Inhibition of cyclin-dependent kinase 12 (% enzyme activity at 1 uM and IC50). The class given is biochemical. As to conditions: for remaining activity at 1 µM: 1 uM compound.
Another experiment relates to MDA-MB-231 cell line. Description: Antiproliferative activity, MDA-MB-231 cell line (GI50). The class given is cell-based. To be noted: Homo sapiens.

CDK12, sequence (Q9NYV4 whole entry): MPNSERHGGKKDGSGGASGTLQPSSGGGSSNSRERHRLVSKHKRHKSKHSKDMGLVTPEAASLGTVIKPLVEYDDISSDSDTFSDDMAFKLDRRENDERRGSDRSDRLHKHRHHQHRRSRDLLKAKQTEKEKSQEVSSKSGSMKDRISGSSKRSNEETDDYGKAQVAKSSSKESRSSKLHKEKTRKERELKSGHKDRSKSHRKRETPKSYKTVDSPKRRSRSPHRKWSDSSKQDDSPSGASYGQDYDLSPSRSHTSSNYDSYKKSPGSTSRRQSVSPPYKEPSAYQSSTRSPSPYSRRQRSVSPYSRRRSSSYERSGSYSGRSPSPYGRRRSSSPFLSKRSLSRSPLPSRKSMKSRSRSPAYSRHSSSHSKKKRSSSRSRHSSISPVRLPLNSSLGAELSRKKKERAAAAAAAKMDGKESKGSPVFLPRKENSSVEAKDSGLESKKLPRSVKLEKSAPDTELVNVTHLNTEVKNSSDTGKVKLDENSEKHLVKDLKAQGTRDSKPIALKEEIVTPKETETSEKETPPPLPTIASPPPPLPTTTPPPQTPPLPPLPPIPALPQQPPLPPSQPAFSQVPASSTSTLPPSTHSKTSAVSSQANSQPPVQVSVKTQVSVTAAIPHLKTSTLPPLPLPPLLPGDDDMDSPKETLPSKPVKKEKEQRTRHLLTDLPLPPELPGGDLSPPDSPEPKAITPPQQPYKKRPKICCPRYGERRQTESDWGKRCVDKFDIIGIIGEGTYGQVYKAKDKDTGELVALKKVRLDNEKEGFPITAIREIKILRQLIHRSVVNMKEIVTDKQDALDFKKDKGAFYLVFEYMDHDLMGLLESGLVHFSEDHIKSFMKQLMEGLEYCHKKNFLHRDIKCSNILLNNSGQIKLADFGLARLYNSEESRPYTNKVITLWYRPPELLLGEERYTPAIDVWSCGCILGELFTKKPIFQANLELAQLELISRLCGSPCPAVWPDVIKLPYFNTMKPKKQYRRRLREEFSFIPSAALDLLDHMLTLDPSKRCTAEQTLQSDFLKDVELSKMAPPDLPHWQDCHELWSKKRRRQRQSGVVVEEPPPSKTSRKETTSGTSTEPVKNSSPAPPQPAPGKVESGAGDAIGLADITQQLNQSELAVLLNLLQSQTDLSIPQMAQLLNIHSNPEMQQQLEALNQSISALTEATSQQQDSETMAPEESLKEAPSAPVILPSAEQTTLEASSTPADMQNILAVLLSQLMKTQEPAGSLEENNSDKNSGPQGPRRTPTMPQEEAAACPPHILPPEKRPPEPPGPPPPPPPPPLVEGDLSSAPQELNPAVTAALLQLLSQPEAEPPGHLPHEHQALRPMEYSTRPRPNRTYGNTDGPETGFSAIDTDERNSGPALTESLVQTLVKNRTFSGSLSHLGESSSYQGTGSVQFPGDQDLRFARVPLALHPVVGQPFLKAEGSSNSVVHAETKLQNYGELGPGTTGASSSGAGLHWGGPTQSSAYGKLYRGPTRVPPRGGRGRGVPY
CDK12, sequence (O75909 whole entry partner): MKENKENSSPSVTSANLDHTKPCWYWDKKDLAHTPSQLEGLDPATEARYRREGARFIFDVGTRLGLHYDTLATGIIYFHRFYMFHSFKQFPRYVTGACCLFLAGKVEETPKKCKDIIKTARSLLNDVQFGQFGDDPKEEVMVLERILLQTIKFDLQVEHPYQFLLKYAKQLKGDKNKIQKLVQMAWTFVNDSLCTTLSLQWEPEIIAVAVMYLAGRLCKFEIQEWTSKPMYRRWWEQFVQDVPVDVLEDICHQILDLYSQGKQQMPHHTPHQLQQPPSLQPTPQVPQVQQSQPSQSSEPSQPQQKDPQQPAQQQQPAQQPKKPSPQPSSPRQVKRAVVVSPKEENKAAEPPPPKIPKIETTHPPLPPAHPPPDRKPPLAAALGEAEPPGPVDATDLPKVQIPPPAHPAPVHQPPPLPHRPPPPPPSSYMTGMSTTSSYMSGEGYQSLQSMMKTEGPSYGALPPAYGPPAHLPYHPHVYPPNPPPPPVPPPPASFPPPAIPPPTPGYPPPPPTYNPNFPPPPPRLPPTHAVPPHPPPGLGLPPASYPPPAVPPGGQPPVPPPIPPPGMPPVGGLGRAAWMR

Consider `NC1CCN(c2cc(NCc3nc4cc(Cl)c(Cl)cc4[nH]3)c3ncc(-c4cnn(C(F)F)c4)n3n2)CC1` [Cmpd 45, 6-(4-aminopiperidin-1-yl)-N-((5,6-dichloro-1H-benzo[d]imidazol-2-yl)methyl)-3-(1-(difluoromethyl)-1H-pyrazol-4-yl) imidazo[1,2-b]pyridazin-8-amine], for which, in the experiment on CCNK, the DC50 turned out to be 1200 nM and the “Dmax (%)” value was 100%. Moreover, on CDK12, the IC50 was 567 nM. The compound further showed a GI50 in the experiment with MDA-MB-231 cell line of 365 nM.

On to `Cc1cc(-c2cnc3c(NCc4nc5c(F)c(F)ccc5[nH]4)cc(N4CCOCC4)nn23)cs1` [Cmpd 97, N-((4,5-difluoro-1H-benzo[d]imidazol-2-yl)methyl)-3-(5-methylthiophen-3-yl)-6-morpholinoimidazo[1,2-b]pyridazin-8-amine], for which, in the experiment with CCNK, the DC50 came to 1300 nM and the “Dmax (%)” value was 75%. The same compound returned a remaining activity at 1 µM on CDK12 of 79%. Moreover, halving of growth with MDA-MB-231 cell line (GI50) required 10000 nM.

For `Cc1cc(-c2cnc3c(NCc4nc5cccc(Cl)c5[nH]4)cc(N4CCN(C)CC4)nn23)cs1` [Cmpd 84, N-((7-chloro-1H-benzo[d]imidazol-2-yl)methyl)-6-(4-methylpipcrazin-1-yl)-3-(5-methylthiophen-3-yl) imidazo[1,2-b]pyridazin-8-amine], in the experiment on CCNK, the DC50 came to 1500 nM and the “Dmax (%)” value was determined as 80%. This compound also showed a remaining activity at 1 µM at CDK12 of 61%. The compound further yielded a GI50 with MDA-MB-231 cell line of 2210 nM.

In the case of `CN1CCN(c2cc(NCc3nc4cccc(Cl)c4[nH]3)c3ncc(-c4cnn(C5CC5)c4)n3n2)CC1` [Cmpd 32, N-((7-chloro-1H-benzo[d]imidazol-2-yl)methyl)-3-(1-cyclopropyl-1H-pyrazol-4-yl)-6-(4-methylpiperazin-1-yl) imidazo[1,2-b]pyridazin-8-amine], in the experiment on CCNK, the 50% degradation concentration (DC50) was found to be 1400 nM and the “Dmax (%)” value is recorded as 50%. In addition, at CDK12, the IC50 was found to be 2080 nM and the remaining activity at 1 µM was 45%. The compound also registered a GI50 with MDA-MB-231 cell line of 4430 nM.

In the case of `N#Cc1cc(-c2cnc3c(NCc4nc5cc(Cl)c(Cl)cc5[nH]4)cc(N4CCOCC4)nn23)cs1` [Cmpd 80, 4-(8-(((5,6-dichloro-1H-benzo[d]imidazol-2-yl)methyl)amino)-6-morpholinoimidazo[1,2-b]pyridazin-3-yl)thiophene-2-carbonitrile], in the experiment with CCNK, the 50% degradation concentration (DC50) worked out at 1000 nM and the “Dmax (%)” value is reported as 95%. At CDK12, this compound returned an IC50 of 3000 nM and a remaining activity at 1 µM of 75%. Moreover, halving of growth in the experiment on MDA-MB-231 cell line (GI50) required 867 nM.

In the case of `Clc1cccc2nc(CNc3cc(N4CCNCC4)nn4c(-c5ccsc5)cnc34)[nH]c12` [Cmpd 68, N-((7-chloro-1H-benzo[d]imidazol-2-yl)methyl)-6-(piperazin-1-yl)-3-(thiophen-3-yl) imidazo[1,2-b]pyridazin-8-amine], in the experiment on CCNK, the DC50 was 10 nM and the “Dmax (%)” value was 90%. Further, on CDK12, inhibition was half-maximal at 65 nM (IC50). In addition, it took 33 nM to inhibit growth in the experiment on MDA-MB-231 cell line by half (GI50).

Take `Cc1ccnc2[nH]c(CNc3cc(N4CCOCC4)nn4c(-c5cnn(C(F)F)c5)cnc34)nc12` [Cmpd 58, 3-(1-(difluoromethyl)-1H-pyrazol-4-yl)-N-((7-methyl-3H-imidazo[4,5-b]pyridin-2-yl)methyl)-6-morpholinoimidazo[1,2-b]pyridazin-8-amine]: in the experiment with CCNK, half-maximal degradation (DC50) was put at 260 nM and the “Dmax (%)” value is given as 100%. Further, at CDK12, the IC50 amounted to 65 nM. In the experiment on MDA-MB-231 cell line, this compound had a concentration for 50% growth inhibition (GI50) of 406 nM.

As for `Cn1cc(-c2cnc3c(NCc4nc5c(F)c(F)ccc5[nH]4)cc(N4CCOCC4)nn23)cn1` [Cmpd 6, N-((4,5-difluoro-1H-benzo[d]imidazol-2-yl)methyl)-3-(1-methyl-1H-pyrazol-4-yl)-6-morpholinoimidazo[1,2-b]pyridazin-8-amine], in the experiment on CCNK, the half-maximal degradation concentration (DC50) stood at 460 nM and the “Dmax (%)” value stood at 75%. At CDK12, this compound had an IC50 of 3000 nM. Moreover, the GI50 in the experiment on MDA-MB-231 cell line turned out to be 3840 nM.

In the case of `Clc1cc2nc(CNc3cc(N4CCOCC4)nn4c(-c5cnn(C6CC6)c5)cnc34)[nH]c2cc1Cl` [Cmpd 30, 3-(1-cyclopropyl-1H-pyrazol-4-yl)-N-((5,6-dichloro-1H-benzo[d]imidazol-2-yl)methyl)-6-morpholinoimidazo[1,2-b]pyridazin-8-amine], in the experiment with CCNK, it took 3000 nM to reach half-maximal degradation (DC50) and the “Dmax (%)” value was found to be 70%. At CDK12, this compound came in with a remaining activity at 1 µM of 83%. The GI50 in the experiment with MDA-MB-231 cell line was 2120 nM.

With `Cc1ccnc2[nH]c(CNc3cc(N4CCN(C)CC4)nn4c(-c5cnn(C(F)F)c5)cnc34)nc12` [Cmpd 57, 3-(1-(difluoromethyl)-1H-pyrazol-4-yl)-N-((7-methyl-3H-imidazo[4,5-b]pyridin-2-yl)methyl)-6-(4-methylpiperazin-1-yl) imidazo[1,2-b]pyridazin-8-amine], in the experiment with CCNK, half-maximal degradation (DC50) was put at 240 nM and the “Dmax (%)” value stood at 65%. At CDK12, the IC50 is 54 nM. In addition, it took 419 nM to inhibit growth in the experiment on MDA-MB-231 cell line by half (GI50).

In the case of `Fc1ccc2[nH]c(CNc3cc(N4CCOCC4)nn4c(-c5cnn(C6CC6)c5)cnc34)nc2c1F` [Cmpd 39, 3-(1-cyclopropyl-1H-pyrazol-4-yl)-N-((4,5-difluoro-1H-benzo[d]imidazol-2-yl)methyl)-6-morpholinoimidazo[1,2-b]pyridazin-8-amine], in the experiment on CCNK, the DC50 is 920 nM and the “Dmax (%)” value is reported as 80%. On CDK12, this compound registered a remaining activity at 1 µM of 61%. Further, the GI50 with MDA-MB-231 cell line was determined as 10000 nM.

Turning to `Clc1cccc2nc(CNc3cc(N4CCOCC4)nn4c(-c5cnn(C6CC6)c5)cnc34)[nH]c12` [Cmpd 33, N-((7-chloro-1H-benzo[d]imidazol-2-yl)methyl)-3-(1-cyclopropyl-1H-pyrazol-4-yl)-6-morpholinoimidazo[1,2-b]pyridazin-8-amine], in the experiment on CCNK, it took 830 nM to reach half-maximal degradation (DC50) and the “Dmax (%)” value stood at 65%. This compound also displayed a remaining activity at 1 µM on CDK12 of 60%. For the same compound, the 50% growth inhibitory concentration (GI50) in the experiment on MDA-MB-231 cell line was 6160 nM.

As to `Cc1noc(C)c1-c1cnc2c(NCc3nc4cc(Cl)c(Cl)cc4[nH]3)cc(N3CCN(C)CC3)nn12` [Cmpd 99, N-((5,6-dichloro-1H-benzo[d]imidazol-2-yl)methyl)-3-(3,5-dimethylisoxazol-4-yl)-6-(4-methylpiperazin-1-yl) imidazo[1,2-b]pyridazin-8-amine], in the experiment with CCNK, half-maximal degradation (DC50) was put at 10000 nM. Also, at CDK12, the IC50 worked out at 1250 nM and the remaining activity at 1 µM is 59%. The compound also yielded a 50% growth inhibitory concentration (GI50) in the experiment with MDA-MB-231 cell line of 689 nM.

For the compound `Cc1cc(-c2cnc3c(NCc4nc5c(F)c(F)ccc5[nH]4)cc(N4CCN(C)CC4)nn23)cs1` [Cmpd 96, N-((4,5-difluoro-1H-benzo[d]imidazol-2-yl)methyl)-6-(4-methylpiperazin-1-yl)-3-(5-methylthiophen-3-yl) imidazo[1,2-b]pyridazin-8-amine], in the experiment with CCNK, half-maximal degradation (DC50) was put at 1800 nM and the “Dmax (%)” value is 75%. On CDK12, the remaining activity at 1 µM worked out at 63%. This compound also came in with a 50% growth inhibitory concentration (GI50) in the experiment with MDA-MB-231 cell line of 3110 nM.

Regarding `CN1CCC(Nc2cc(NCc3nc4cccc(Cl)c4[nH]3)c3ncc(-c4ccsc4)n3n2)CC1` [Cmpd 71, N8-((7-chloro-1H-benzo[d]imidazol-2-yl)methyl)-N6-(1-methylpiperidin-4-yl)-3-(thiophen-3-yl) imidazo[1,2-b]pyridazine-6,8-diamine], in the experiment on CCNK, half-maximal degradation (DC50) was put at 160 nM and the “Dmax (%)” value stood at 100%. The same compound came in with an IC50 at CDK12 of 130 nM. In the experiment with MDA-MB-231 cell line, this compound displayed a 50% growth inhibitory concentration (GI50) of 71 nM.

With `Clc1cc2nc(CNc3cc(N4CCOCC4)nn4c(-c5cn[nH]c5)cnc34)[nH]c2cc1Cl` [Cmpd 61, N-((5,6-dichloro-1H-benzo[d]imidazol-2-yl)methyl)-6-morpholino-3-(1H-pyrazol-4-yl) imidazo[1,2-b]pyridazin-8-amine], in the experiment with CCNK, the 50% degradation concentration (DC50) was found to be 590 nM and the “Dmax (%)” value came out at 100%. The compound further yielded an IC50 against CDK12 of 1320 nM. The compound also came in with a GI50 in the experiment on MDA-MB-231 cell line of 235 nM.

As to `NC1CCN(c2cc(NCc3nc4cc(Cl)c(Cl)cc4[nH]3)c3ncc(-c4cnn(C(F)F)c4)n3n2)C1` (stereo not shown) [Cmpd 44, 6-(3-aminopyrrolidin-1-yl)-N-((5,6-dichloro-1H-benzo[d]imidazol-2-yl)methyl)-3-(1-(difluoromethyl)-1H-pyrazol-4-yl) imidazo[1,2-b]pyridazin-8-amine], in the experiment with CCNK, half-maximal degradation (DC50) was put at 440 nM and the “Dmax (%)” value worked out at 100%. In addition, the IC50 at CDK12 was 1420 nM. The compound further returned a GI50 with MDA-MB-231 cell line of 154 nM.

For `CN1CCN(c2cc(NCc3nc4c(F)c(F)ccc4[nH]3)c3ncc(-c4cnn(C)c4)n3n2)CC1` [Cmpd 5, N-((4,5-difluoro-1H-benzo[d]imidazol-2-yl)methyl)-3-(1-methyl-1H-pyrazol-4-yl)-6-(4-methylpiperazin-1-yl) imidazo[1,2-b]pyridazin-8-amine], in the experiment with CCNK, it took 1300 nM to reach half-maximal degradation (DC50) and the “Dmax (%)” value was 65%. Besides, at CDK12, 3000 nM corresponded to half-maximal inhibition (IC50). For the same compound, in the experiment on MDA-MB-231 cell line, the GI50 is 4280 nM.

Turning to `Cc1cc(-c2cnc3c(NCc4nc5cc(Cl)c(Cl)cc5[nH]4)cc(N4CCOCC4)nn23)cs1` [Cmpd 88, N-((5,6-dichloro-1H-benzo[d]imidazol-2-yl)methyl)-3-(5-methylthiophen-3-yl)-6-morpholinoimidazo[1,2-b]pyridazin-8-amine], in the experiment on CCNK, the DC50 came out at 1800 nM and the “Dmax (%)” value was determined as 100%. This compound also registered a remaining activity at 1 µM at CDK12 of 82%. Moreover, the GI50 in the experiment with MDA-MB-231 cell line was found to be 460 nM.

On to `Fc1cccc2[nH]c(CNc3cc(N4CCOCC4)nn4c(-c5cnn(C6CC6)c5)cnc34)nc12` [Cmpd 36, 3-(1-cyclopropyl-1H-pyrazol-4-yl)-N-((4-fluoro-1H-benzo[d]imidazol-2-yl)methyl)-6-morpholinoimidazo[1,2-b]pyridazin-8-amine], for which, in the experiment with CCNK, half-maximal degradation (DC50) was put at 830 nM and the “Dmax (%)” value is 65%. Moreover, on CDK12, the IC50 came out at 1220 nM and the remaining activity at 1 µM worked out at 45%. In the experiment on MDA-MB-231 cell line, this compound returned a GI50 of 4670 nM.

`CN1CCN(c2cc(NCc3nc4c(F)c(F)ccc4[nH]3)c3ncc(-c4csc(C#N)c4)n3n2)CC1` [Cmpd 82, 4-(8-(((4,5-difluoro-1H-benzo[d]imidazol-2-yl)methyl)amino)-6-(4-methylpiperazin-1-yl)imidazo[1,2-b]pyridazin-3-yl)thiophene-2-carbonitrile]: in the experiment with CCNK, the 50% degradation concentration (DC50) was found to be 250 nM and the “Dmax (%)” value is 50%. Further, at CDK12, the IC50 was 405 nM and the remaining activity at 1 µM was found to be 30%. The concentration for 50% growth inhibition (GI50) with MDA-MB-231 cell line is 1120 nM.

The values above are taken from patent US20260055114A1, “IMIDAZO[1,2-B]PYRIDAZINE INHIBITORS OF CYCLIN-DEPENDENT KINASES” (H. LEE MOFFITT CANCER CENTER AND RESEARCH INSTITUTE, INC., priority 2022, published 2026).
